Values quoted from earlier work in US5916587A, “Transdermal delivery matrix for piroxicam” (Sunkyong Industries Co., Ltd., priority 1992, dated 1999).

Key:
[1] = tested on: prostaglandin biosynthesis
[2] = orally administered
[3] = oral use

Compound	potency as an inhibitor of prostaglandin biosynthesis in vitro ([1]; compared with indomethacin)	drug excreted in the urine unchanged [2]	metabolism [2]	side effects [3]	fold less active than piroxicam inhibiting prostaglandin synthesis ([1]; metabolite vs piroxicam)
CN1C(C(=O)Nc2ccccn2)=C(O)c2ccccc2S1(=O)=O [Piroxicam, piroxicam]	about equal in potency to indomethacin	Less than 5%	metabolized at the first pass route	gastro-intestinal trouble, peptic ulcer	–
Nc1nc2cccc(-c3ccc(CN4CCS(=O)(=O)CC4)cc3)n2n1 [metabolite]	–	–	–	–	at least 1000 times
